Patent US10632206B2, “Zwitterionic polymers with therapeutic moieties” (priority 2008, dated 2020)

Assays:
Experiment in all cases: In vitro cytotoxicity, CellTiter-Glo cell viability
Assay type in all cases: cell-based
[1] = test system: colon (COLO 205) adenocarcinoma cells; conditions: Homo sapiens, 72 h incubation, CPT-equivalent concentrations
Description: (§1) HPLC characterization of CPT liberation from CPT-polyMPC conjugates confirmed the importance of tailored linkers, and was informative for in vitro cell culture evaluation of conjugate toxicity against various cell lines. […] These CPT hydrolysis half-lives are, however, slower than those reported for PEGylated-SN38 conjugates, leading to an expected longer blood circulation time in vivo. […] Controls included a DMSO solution of CPT, and polyMPC itself in sterile distilled water. […] Importantly, the cytotoxicity was through the CPT only, since polyMPC by itself was non-toxic (FIG. 8).
(§2) Sodium azide, 4-(dimethylamino)pyridine (DMAP), N,N′-diisopropylethylamine (DIPEA), triethylamine (TEA), N-(3-Dimethylaminopropyl)-N′-ethylcarbodiimide hydrochloride (EDC), 2-bromopropionyl bromide, 2-bromoisobutyryl bromide, copper(I) bromide, 2,2′-bipyridine (bpy), 6-bromohexanoic acid, 2-[2-(2-chloroethoxy)ethoxy]ethanol, ethyl 2-bromoisobutyrate, 3-(trimethylsilyl)propargyl alcohol, methacyloyl chloride, mouse serum, and human plasma were purchased from Aldrich. 20(S)-camptothecin (CPT) was purchased from Acros. Chromium trioxide was purchased from Alfa Aesar. TFA was purchased from Fisher Scientific. Boc-Gly-OH was purchased from Advanced ChemTech. MPC monomer was synthesized in house. […] Cell viability was measured using CellTiter-Glo luminescent cell viability assays (Promega).
(§3) The COLO 205 and OVCAR 3 cancer cells were cultured in RPMI-1640 medium supplemented with 10% fetal bovine serum (FBS) or 20% FBS and 0.01 mg/ml bovine insulin, while MCF 7 cells were cultured in MEM medium supplemented with 10% FBS and 0.01 mg/ml bovine insulin. […] Cell viability post-treatment was measured using CellTiter-Glo luminescent cell viability assays (Promega) as per manufacturer's instructions on a FLUOstar OPTIMA plate reader (BMG LABTECH). The percentage camptothecin mediated toxicity was calculated with respect to untreated cells, and graphed to give dose response curves. IC50 values for each treatment were then calculated using the GraphPad Prism4 statistical analysis software.

[2] = test system: ovarian (OVCAR 3) adenocarcinoma cells; conditions: Homo sapiens, 72 h incubation, CPT-equivalent concentrations
Description: as §1, §2, §3

[3] = test system: human breast (MCF-7) adenocarcinoma cells; conditions: MCF7, 72 h incubation, CPT-equivalent concentrations
Description: as §1, §2, §3

Question: For `CC[C@@]1(O)C(=O)OCc2c1cc1n(c2=O)Cc2cc3ccccc3nc2-1` [CPT, 20(S)-Camptothecin], which IC50 [1] is on record?
Answer: 320 nM

Question: What about the IC50 [2] of the same compound?
Answer: 130 nM

Question: And the IC50 [3]?
Answer: 290 nM
